Consider 20 compounds from PubChem BioAssay (NCI).

Molecules are shown by their SMILES. “And” between values parts separate entries of the source, which are not always exact repeats. Identical values can stand only once.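 96-well plates; 48 h exposure; 5 concentrations. Endpoints by linear interpolation between flanking doses. Not reached: highest tested concentration assigned. GI50 = concentration required for 50% inhibition of growth. The concentration for full growth arrest is given as TGI.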

Some test systems named below: U251 CNS; CCRF-CEM leukemia; HOP-18 NSCLC; HCT-15 colon; HOP-62 NSCLC; KM20L2 colon; SN12C renal; SK-MEL-2 melanoma; DLD-1 colon; MDA-MB-231 breast.
What all share (assay): DTP human tumour cell line panel, 48 h

As for `COc1cc(CNc2ccc(C(C)C)cc2)cc(OC)c1OC`, the TGI (usually the concentration giving total growth inhibition) in the assay on U251 CNS came to 29.7 µM; in the assay on CCRF-CEM leukemia, 50.5 µM; in the assay on HOP-18 NSCLC, 74.1 µM; in the assay on HCT-15 colon it was 31.2 µM; with HOP-62 NSCLC, 55.1 µM; in the assay with KM20L2 colon it was 38.8 µM. For the same compound, the TGI was 31.4 µM in the assay with SN12C renal, 32.9 µM in the assay with SK-MEL-2 melanoma and 48.8 µM with DLD-1 colon.

Turning to `CCCCCCCCCCCCCC(=O)CBr`, the concentration for total growth inhibition (TGI) in the assay on U251 CNS worked out at 28.8 µM; in the assay on CCRF-CEM leukemia, 2.6 µM; with HOP-18 NSCLC, 29.3 µM; in the assay on HCT-15 colon, 28.3 µM; in the assay on HOP-62 NSCLC, 50.6 µM; with KM20L2 colon, 26 µM. Moreover, the TGI was found to be 43.3 µM in the assay on SN12C renal, 34.2 µM with MDA-MB-231 breast, 26.3 µM in the assay on SK-MEL-2 melanoma and 34.3 µM in the assay on DLD-1 colon.

On to `O=C(CN1CCN(c2ccccc2)CC1)N1CCc2c([nH]c3ccccc23)C1c1cccnc1` (stereo not given), for which the total growth inhibition concentration (TGI) with U251 CNS was 42.2 µM; with CCRF-CEM leukemia, more than 100 µM; in the assay on HOP-18 NSCLC, more than 100 µM; in the assay with HCT-15 colon, more than 100 µM; in the assay with HOP-62 NSCLC, more than 100 µM; with KM20L2 colon it was more than 100 µM. The TGI in the assay on SN12C renal, with SK-MEL-2 melanoma and with DLD-1 colon was more than 100 µM throughout.

As to `COc1ccc(NC(=O)c2cc(OC)c(OC)c(OC)c2)cc1`, the TGI with U251 CNS is more than 100 µM; in the assay with CCRF-CEM leukemia, more than 100 µM; in the assay on HOP-18 NSCLC it was more than 100 µM; in the assay on HCT-15 colon it was more than 100 µM; in the assay with HOP-62 NSCLC, 99.7 µM; with KM20L2 colon, more than 100 µM. Moreover, the TGI in the assay on SN12C renal is more than 100 µM; in the assay on SK-MEL-2 melanoma, 65.2 µM; in the assay with DLD-1 colon it was more than 100 µM.

As for `COc1cccc(C2c3cc4c(cc3OC(O)(CO)C2C(=O)O)OCO4)c1` (stereo not given) (tested in a mixture with another compound), the TGI in the assay with U251 CNS was 62.2 µM; in the assay with CCRF-CEM leukemia, more than 100 µM; in the assay on HOP-18 NSCLC it was more than 100 µM; in the assay with HCT-15 colon, more than 100 µM; with HOP-62 NSCLC, more than 100 µM; with KM20L2 colon, more than 100 µM. Moreover, the TGI in the assay on SN12C renal, in the assay on SK-MEL-2 melanoma and with DLD-1 colon was more than 100 µM in each case.

Consider `CC1C(=O)C(C)C(c2ccccc2)N(N=O)C1c1ccccc1` (stereo not given), for which the GI50 (usually the concentration that inhibits growth by half) was 131 µM with U251 CNS; more than 1000 µM with HOP-18 NSCLC; more than 1000 µM with HCT-15 colon; 111 µM in the assay with HOP-62 NSCLC; more than 65.2 µM with SN12C renal; more than 1000 µM with DLD-1 colon. For the same compound, the TGI in the assay with U251 CNS was > 92.4 µM and 397 µM; in the assay with CCRF-CEM leukemia, more than 1000 µM; with HOP-18 NSCLC it was more than 1000 µM; in the assay with HCT-15 colon, more than 1000 µM; in the assay on HOP-62 NSCLC, > 78.3 µM and 360 µM; with KM20L2 colon, more than 1000 µM. Besides, the total growth inhibition concentration (TGI) is 981 µM with SN12C renal, 250 µM with MDA-MB-231 breast, 623 µM in the assay with SK-MEL-2 melanoma and more than 1000 µM in the assay on DLD-1 colon.

In the case of `CCCCCCCCCCCCCCCCCCCCCC(=O)Nc1ccn(C2OC(CO)C(O)C2O)c(=O)n1` (stereo not given), the TGI was more than 100 µM in the assay with U251 CNS; more than 40.7 µM in the assay with CCRF-CEM leukemia; more than 100 µM in the assay on HOP-18 NSCLC; more than 100 µM in the assay on HCT-15 colon; more than 57.6 µM in the assay with HOP-62 NSCLC; more than 100 µM with KM20L2 colon. Moreover, the TGI in the assay with SN12C renal, in the assay on SK-MEL-2 melanoma and in the assay on DLD-1 colon was more than 100 µM throughout.

Take `CC/C=C\C/C=C\C/C=C\CCCCCCCC(=O)OCC`: the TGI in the assay with U251 CNS, in the assay with CCRF-CEM leukemia, in the assay on HOP-18 NSCLC, in the assay on HOP-62 NSCLC, in the assay with KM20L2 colon and with SN12C renal was more than 100 µM throughout. In addition, the TGI with SK-MEL-2 melanoma and with DLD-1 colon was more than 100 µM each time.

On to `CCCCCCCCCc1cc(=O)c2ccc(O)cc2o1`, for which the TGI in the assay on U251 CNS is more than 100 µM; in the assay with CCRF-CEM leukemia, 55.2 µM; in the assay on HOP-18 NSCLC, more than 100 µM; with HOP-62 NSCLC it was more than 100 µM; in the assay with KM20L2 colon it was more than 100 µM; in the assay on SN12C renal, more than 100 µM. Further, the total growth inhibition concentration (TGI) with SK-MEL-2 melanoma and in the assay with DLD-1 colon was more than 100 µM throughout.

With `S=c1[nH]c2ccc(Br)cc2c(=S)n1-c1ccccc1`, the TGI with U251 CNS is 48.4 µM; in the assay on CCRF-CEM leukemia it was more than 100 µM; in the assay on HOP-18 NSCLC, 85.4 µM; in the assay on HCT-15 colon it was 63.2 µM; in the assay with HOP-62 NSCLC, 47 µM; in the assay with KM20L2 colon, more than 100 µM. The total growth inhibition concentration (TGI) in the assay with SN12C renal was 98.7 µM; with SK-MEL-2 melanoma, 43.7 µM; with DLD-1 colon, more than 100 µM.

Consider `CC1S(=O)(=O)OCCOS1(=O)=O`, for which the TGI in the assay with U251 CNS, in the assay with CCRF-CEM leukemia, in the assay on HOP-18 NSCLC, with HCT-15 colon, with HOP-62 NSCLC and in the assay on KM20L2 colon was more than 100 µM throughout. The TGI in the assay on SN12C renal, in the assay with SK-MEL-2 melanoma and in the assay with DLD-1 colon was more than 100 µM each time.

In the case of `Cc1cc(=O)oc2cc3c(cc12)Oc1ccccc1O3`, the total growth inhibition concentration (TGI) with U251 CNS is more than 100 µM; in the assay with CCRF-CEM leukemia, more than 10 µM; in the assay on HOP-18 NSCLC it was more than 100 µM; in the assay on HCT-15 colon it was more than 100 µM; in the assay with HOP-62 NSCLC, more than 100 µM; in the assay with KM20L2 colon, more than 100 µM. Moreover, the TGI with SN12C renal, in the assay on SK-MEL-2 melanoma and in the assay on DLD-1 colon was more than 100 µM each time.

Take `CCC12CCCC(=O)N1C(CO)C(c1ccccc1)O2` (stereo not given): the TGI in the assay with U251 CNS, in the assay on CCRF-CEM leukemia, in the assay on HOP-18 NSCLC, in the assay with HCT-15 colon, with HOP-62 NSCLC and in the assay with KM20L2 colon was more than 100 µM in each case. Further, the TGI with SN12C renal, in the assay on SK-MEL-2 melanoma and in the assay with DLD-1 colon was more than 100 µM in each case.

On to `CCOc1ccc(NCc2cc(OC)c(OC)c(OC)c2)cc1`, for which the TGI was 19.3 µM and 22.3 µM with U251 CNS; more than 74.9 µM in the assay on CCRF-CEM leukemia; more than 100 µM in the assay on HOP-18 NSCLC; 45.9 µM and 32.7 µM with HCT-15 colon; > 36.6 µM and 24.7 µM in the assay with HOP-62 NSCLC; 1.79 µM and 3.09 µM in the assay on KM20L2 colon. The TGI with SN12C renal, with MDA-MB-231 breast, with SK-MEL-2 melanoma and in the assay with DLD-1 colon was more than 100 µM throughout. Further, the GI50 in the assay on CCRF-CEM leukemia is 0.759 µM and 1.7 µM; with HOP-18 NSCLC it was 2.46 µM and 10.2 µM; in the assay with SN12C renal, 1.41 µM and 7.91 µM; in the assay on SK-MEL-2 melanoma, 2.22 µM and 0.429 µM.

For `COc1cccc(C(=O)C2C(=O)N(C)CCc3ccccc32)c1OC` (stereo not given), the TGI with U251 CNS, in the assay on CCRF-CEM leukemia, in the assay on HOP-18 NSCLC, with HCT-15 colon, in the assay with HOP-62 NSCLC and with KM20L2 colon was more than 100 µM in each case. In addition, the TGI in the assay with SN12C renal, in the assay on SK-MEL-2 melanoma and with DLD-1 colon was more than 100 µM each time.

In the case of `COc1cc(/C=C/C(=O)c2sc(Nc3ccccc3)nc2C)ccc1O`, the total growth inhibition concentration (TGI) with U251 CNS, with CCRF-CEM leukemia, in the assay with HOP-18 NSCLC, in the assay on HCT-15 colon, in the assay with HOP-62 NSCLC and in the assay with KM20L2 colon was more than 100 µM each time. Besides, the TGI in the assay with SN12C renal, with SK-MEL-2 melanoma and in the assay on DLD-1 colon was more than 100 µM each time.

As to `N#CC(C(=O)C(=O)NCCCNC(=O)C(=O)C(C#N)c1ccccc1)c1ccccc1` (stereo not given), the total growth inhibition concentration (TGI) in the assay on U251 CNS, in the assay with CCRF-CEM leukemia, with HOP-18 NSCLC, with HCT-15 colon, in the assay with HOP-62 NSCLC and with KM20L2 colon was more than 100 µM each time. The concentration for total growth inhibition (TGI) in the assay with SN12C renal, in the assay with SK-MEL-2 melanoma and in the assay with DLD-1 colon was more than 100 µM throughout.

As for `N[C@H](C(=O)O)[C@H](Cl)CC(=O)O`, the TGI in the assay on U251 CNS, with CCRF-CEM leukemia, in the assay on HOP-18 NSCLC, in the assay on HCT-15 colon, in the assay on HOP-62 NSCLC and in the assay with KM20L2 colon was more than 100 µM each time. The TGI in the assay with SN12C renal, in the assay with SK-MEL-2 melanoma and in the assay on DLD-1 colon was more than 100 µM throughout.

`COc1cc([C@@H]2c3cc4c(cc3[C@@H](NC(=O)c3ccccc3)C3COC(=O)[C@@H]32)OCO4)cc(OC)c1O` (stereo not given in full): the TGI with U251 CNS was 13.5 µM; with CCRF-CEM leukemia, more than 100 µM; with HOP-18 NSCLC, more than 100 µM; in the assay with HCT-15 colon, more than 100 µM; in the assay on HOP-62 NSCLC, 13 µM; with KM20L2 colon it was 12.8 µM. Further, the TGI in the assay on SN12C renal was 9.81 µM; in the assay on SK-MEL-2 melanoma, 57.3 µM; in the assay on DLD-1 colon, more than 100 µM.

With `Cc1ccc(NC(=O)/C(=N\Nc2ccc([N+](=O)[O-])cc2[N+](=O)[O-])C2C(=O)NC(=O)NC2=O)cc1`, the TGI in the assay on U251 CNS, in the assay with CCRF-CEM leukemia, with HOP-18 NSCLC, in the assay with HCT-15 colon, with HOP-62 NSCLC and in the assay on KM20L2 colon was more than 100 µM each time. Moreover, the total growth inhibition concentration (TGI) in the assay with SN12C renal and in the assay on DLD-1 colon was more than 100 µM throughout.
